From patent publication US20210196654A1, “METHOD OF TREATING CONDITIONS” (Clexio Biosciences Ltd., priority 2019, published 2021)
Where two headings read alike, the source gives them in different places.

Experiments:
[1] = Oye et al (1992); cited from earlier work
[2] = tested on: Sprague Dawley rats; assay: Repeated dose 28 day toxicity study; assay type: in vivo, rat; settings: 28 days oral gavage
Procedure: The objective of the study was to assess the potential toxicity, neurobehavioral effects, and toxicokinetics (TK) of esketamine when administered orally, via gavage, to Sprague Dawley rats for 28 days and to evaluate recovery during a 14-day drug-free period. Fifty male and 50 female rats were randomized into 4 groups (15/sex/Groups 1 and 4; 10/sex/Groups 2 and 3). Esketamine was administered via oral gavage once daily for 28 consecutive days to males at 0 (vehicle control), 6, 10 or 30 mg/kg/day and females at 0 (vehicle control), 2, 10 or 20 mg/kg/day in a dose volume of 10 mL/kg. Animals were observed until euthanized and necropsied on Day 29 (10/sex/group) or 43 (5/sex from Groups 1 and 4). Toxicity was evaluated based on mortality, clinical observations, body weights, food consumption, ophthalmology, motor activity, functional observational battery, clinical pathology (clinical chemistry, hematology, coagulation and urinalysis), organ weights, anatomic (macroscopic or microscopic) pathology. Toxicokinetic animals (3/sex/Group 1; 6/sex/Groups 2, 3, and 4) were similarly dosed and bled on Day 1 and during Week 4 for toxicokinetic analysis.

[3] = tested on: male Sprague Dawley rats; assay: 7-day forced swim test; assay type: in vivo, rat; settings: for decrease in immobility time: 7 daily doses, test 30 min after dosing
Procedure: Groups of, 6-7 week old, male Sprague Dawley rats were administered esketamine by intraperitoneal injection and their behavioral despair assessed by a forced swim test. The animals, in cohorts of 10, were administered either a single dose of 15mg/kg esketamine, 7 daily doses of either 7.5 or 15 mg/kg esketamine or a vehicle control, and the test performed 30 minutes after dosing. Statistical evaluation was performed using an ordinary One-Way ANOVA, t Test and an Uncorrected Fisher's LSD comparisons test.

[4] = tested on: human peripheral blood lymphocytes (HPBL); settings: for structural or numerical (polyploid or endoreduplicated cells) aberrations: non-activated 4 and 20-hour exposure, 60, 120, 238 μg/mL
Procedure: The clastogenic potential of esketamine was evaluated in the in vitro mammalian chromosome aberration test using human peripheral blood lymphocytes (HPBL) in both the absence and presence of an induced metabolic activation system (the 9000 g supernatant [S9] microsomal fraction of liver homogenate from rats exposed to Aroclor-1254).
The study was conducted in 2 phases, with a preliminary toxicity test used to determine the appropriate concentrations for the definitive chromosomal aberration assay. Water was used as a negative (vehicle) control. Toxicity (defined as >45% reduction in MI relative to the vehicle control) was evaluated at 9 concentrations, ranging from 0.0238 to 238 μg/ml, after exposure of HPBL to esketamine for 20 hours in the absence of S9 activation, or for 4 hours, either in the presence or absence of S9 activation, followed by a 16-hour recovery period.
The definitive chromosome aberration assay evaluated HPBL cells after exposure to esketamine for 20 hours in the absence of S9 activation, or for 4 hours, either in the presence of absence of S9 activation, followed by a 16-hour recovery. Positive controls for chromosomal aberrations in non-activated and S9-activated evaluations, respectively, consisted of mitomycin C (MMC, 0.6 and 0.3 μg/mL for the 4- and 20-hour exposures, respectively) and cyclophosphamide (CP, 2.5, 5, and 7.5 μg/mL). […] Initially, the doses selected for evaluation of chromosomal aberrations were 60, 120, and 238 μg/mL for the non-activated 4- and 20-hour treatment conditions; and 30, 60, and 200 μg/mL for the S9-activated 4-hour treatment condition.

[5] = Single dose crossover study in healthy volunteers, pharmacokinetics; settings: both, human, plasma; for AUC(0-inf): AUC0-inf; for AUC(0-inf) / AUC(0-t) / Cmax: geometric mean; for AUC(0-t): AUC0-t; for Cmax: 15 subjects; for half-life: t1/2, geometric mean; for Tmax: median
From the text: A randomized, open-label 4-way crossover study in 16 healthy male and female subjects was held wherein said subjects were placed in a randomly assigned order and administered esketamine. Each subject was assigned to 1 of 4 treatment sequences according to a randomization code such that 4 subjects were assigned to each treatment sequence. There was a wash-out period of at least 7 days between dosing periods with doses consisting of either oral or intravenous esketamine hydrochloride. The study consisted of an eligibility screening period of 28 days, 4 study periods involving administration of a single dose of esketamine hydrochloride followed by safety assessments with blood sampling for PK purposes up to 72 hours after study drug administration, discharge at 72 hours after study drug administration and a follow-up visit 7-14 days after the last PK blood sample was taken on Day 4.

[6] = tested on: liver of Crl:CD(SD) rats; assay: In vivo single cell gel electrophoresis (comet) assay in liver; settings: for lower benchmark dose (BMDL50): single slide median Tail Intensity, PROAST
[7] = cited from earlier work
[8] = tested on: NMDA receptor; settings: Ebert et al (1997); cited from earlier work
[9] = iv, 0.3 mg/kg, plasma analyte after single dose esketamine 0.3 mg/kg iv
[10] = po, 20 mg, plasma analyte after single dose esketamine 20 mg oral solution
[11] = po, 20 mg, plasma analyte after single dose esketamine 20 mg oral tablet
[12] = po, 100 mg, plasma analyte after single dose esketamine 100 mg oral tablet

Which “potency relative to (R)-ketamine in reducing pain perception and in causing auditory and visual disturbances” value [1] does the source give for CN[C@]1(c2ccccc2Cl)CCCCC1=O [esketamine, (2S)-2-(2-Chlorophenyl)-2-(methylamino) cyclohexanone] here?
Its value is 4 times.

And the “effects on clinical signs, body weights, food consumption, ophthalmology, motor activity, functional observational battery, clinical pathology or anatomic pathology” value [2]?
The value was “no esketamine -related effects”.

And the mortality ([2]; males 6, 10, 30, females 2, 10, 20 mg/kg/day)?
Its mortality is “no mortality”.

What about the “decrease in immobility time” value ([3]; 7.5 mg/kg ip) of the same compound?
The value was 40%.

What about the “decrease in immobility time” value ([3]; 15 mg/kg ip) of the same compound?
Its value is 60%.

What about the “extent of effect on immobility time” value ([3]; 15 mg/kg ip, single acute dose) of the same compound?
Its value is 42 % of control.

And the “antidepressant-like effect, continuous 7-day treatment vs single dose” value ([3]; same dose levels)?
The value was “stronger antidepressant-like effect than a single acute dose”.

And the “Cochran-Armitage test, structural aberrations” value [4]?
The value was “positive for a dose response”.

And the “Toxicity (>45% reduction in MI relative to vehicle control), preliminary toxicity test” value [4]?
The value was “not observed at any dose”.

And the “induction of structural chromosomal aberrations” value [4]?
The value was “positive”.

What about the “doses at which cytotoxicity was observed” value ([4]; human) of the same compound?
Its value is greater than 200 µg/mL.

What about the “cytotoxicity (>45% reduction in mitotic index), chromosomal aberration assay” value ([4]; non-activated 4- and 20-hour treatment) of the same compound?
Its value is “not observed at any esketamine dose”.

What about the “structural or numerical (polyploid or endoreduplicated cells) aberrations” value [4] of the same compound?
The value was “no significant or dose-dependent increases”.

And the “structural or numerical (polyploid or endoreduplicated cells) aberrations” value ([4]; listed as Esketamine)?
The value was “negative”.

And the AUC(0-inf) [5, 9]?
Its AUC(0-inf) is 257 ng·h/mL.

And the AUC(0-t) [5, 9]?
The AUC(0-t) was 249 ng·h/mL.

What about the Cmax [5, 9] of the same compound?
Its Cmax is 94.5 ng/mL.

And the half-life [5, 9]?
Its half-life is 610 min.

What about the Tmax [5, 9] of the same compound?
Its Tmax is 60 min.

What about the AUC(0-inf) [5, 10] of the same compound?
The AUC(0-inf) was 25.8 ng·h/mL.

And the AUC(0-inf) [5, 11]?
Its AUC(0-inf) is 22.5 ng·h/mL.

And the AUC(0-t) [5, 10]?
The AUC(0-t) was 23.4 ng·h/mL.

And the AUC(0-t) [5, 11]?
The AUC(0-t) was 20.1 ng·h/mL.

And the Cmax [5, 10]?
The Cmax was 16.5 ng/mL.

What about the Cmax [5, 11] of the same compound?
Its Cmax is 11.9 ng/mL.

And the half-life [5, 10]?
Its half-life is 175 min.

And the half-life [5, 11]?
The half-life was 170 min.

What about the Tmax [5, 10] of the same compound?
The Tmax was 30 min.

What about the Tmax [5, 11] of the same compound?
Its Tmax is 45 min.

And the AUC(0-inf) [5, 12]?
Its AUC(0-inf) is 181 ng·h/mL.

And the AUC(0-t) [5, 12]?
The AUC(0-t) was 173 ng·h/mL.

What about the Cmax [5, 12] of the same compound?
The Cmax was 65.3 ng/mL.

What about the half-life [5, 12] of the same compound?
Its half-life is 460 min.

And the Tmax [5, 12]?
The Tmax was 45 min.

And the macroscopic examination ([6]; after 3 doses)?
The macroscopic examination was “no test item related lesions”.

And the “group mean and median % TI values vs historical control range” value ([6]; female rats, 25 and 50 mg/kg/day)?
The value was “outside of the current vehicle historical control range”.

What about the “median % TI in liver vs vehicle control” value ([6]; female rats, 25 and 50 mg/kg/day oral, 3 doses, p<0.001) of the same compound?
Its value is “Statistically significant increases”.

And the “lower benchmark dose (BMDL50)” value ([6]; female rats)?
Its value is 9.83 mg/kg/day.

What about the “DNA strand breaks in the liver, conclusion” value ([6]; male and female rats, oral gavage) of the same compound?
Its value is “evidence of causing an increase in DNA strand breaks”.

What about the “Hedgehog cells in liver” value ([6]; male or female rats, any dose level) of the same compound?
Its value is “No Hedgehog cells were observed”.

What about the “group mean and median % TI values vs historical control range” value ([6]; male rats, 75 mg/kg/day) of the same compound?
Its value is “outside of the current vehicle historical control range”.

And the “median % tail intensity (TI) in liver vs vehicle control” value ([6]; male rats, 75 mg/kg/day oral, 3 doses, p<0.001)?
The value was “Statistically significant increases”.

And the “lower benchmark dose (BMDL50)” value ([6]; male rats)?
Its value is 27.31 mg/kg/day.

What about the liver histopathological examination ([6]; some male animals, 75 mg/kg/day) of the same compound?
Its liver histopathological examination is “Increased hepatocellular mitotic figures”.

What about the oral bioavailability ([7]; Fanta et al (2015)) of the same compound?
The oral bioavailability was 8%.

And the oral bioavailability ([7]; Peltoniemi et al (2012))?
Its oral bioavailability is 11%.

What about the “affinity for the NMDA receptor relative to (R)-ketamine” value [8] of the same compound?
The value was 5 times.
